Results reported in patent US20260335388A1, “COMBINATION THERAPIES WITH ONCOLYTIC ADENOVIRUS AND TOPOISOMERASE I INHIBITORS OR PRODRUGS THEREOF” (priority 2022, published 2026).
Read-outs that look alike come from different tables or passages of the source.

Assays:
[1] = tested on: HSJD-RBT-2 retinoblastoma cells; assay: Antiproliferative activity (MTS), HSJD-RBT-2; assay type: cell-based; conditions: Homo sapiens
[2] = tested on: HSJD-RBT-7 retinoblastoma cells; assay: cells; assay type: cell-based; conditions: Homo sapiens
[3] = tested on: HSJD-RBVS-10 retinoblastoma cells; assay: cells; assay type: cell-based; conditions: Homo sapiens
E1a [4] = assay: Immunoblot of E1a / E2F-1 in VCN-01-infected Y79 cells with further chemotherapeutics; assay type: cell-based
Description: 2 million Y79 retinoblastoma cells were infected with 50 MOIs of VCN-01. […] Etoposide is topoisomerase 2 inhibitor.
(§1) In all experiments, 6-well culture plates containing 2×10^6 cells were used. […] The experiments were controlled by adding culture medium instead of the second treatment. […] The analyses were expanded to other chemotherapeutic agents including hydroxyurea ([…]), etoposide (2 μM), irinotecan (10 μM) or SN-38 (1 μM).
(§2) Near-infrared labeled secondary antibodies (Odyssey CLx, LI-COR Inc. Bad Homburg, Germany) were used for detection.

HSJD-RBT-7 tumors = assay type: in vivo, mouse; conditions: systemic drug after intratumoral VCN-01 3×10E^9 vp/tumor; 5 days (FIG. 3)
E1A [5] = assay type: in vivo, mouse
[6] = tested on: HSJD-ES-033 Ewing sarcoma; assay: Antitumor activity in Ewing sarcoma PDX HSJD-ES-033; assay type: in vivo, mouse; conditions: single treatment (FIG. 24E,G)
Description: Patient-derived xenograft (PDX) of Ewing sarcoma (pediatric solid tumor) were implanted subcutaneously into athymic nude mice. Tumor model was HSJD-ES-033. Upon engraftment (tumor volumes ranging 100-500 mm^3), combination treatment in which topotecan was administered systemically (intraperitoneal) at a concentration of 0.6 mg/kg/day, on Days 1, 2, 3, 4 and 5, and a single dose of 3×10^9 vp/tumor VCN-01 was administered intratumorally on Day 1, was compared to either of the treatments alone.
Antitumor activity in extracranial pediatric solid tumors. 5-10 mm^3 fresh fragments of Ewing sarcoma or neuroblastoma PDX were implanted in both flanks of mice. Upon s.c. engraftment (tumor volume 150-200 mm^3), mice received topotecan (0.6 mg/kg, i.p., days 1-5), VCN-01 (3×10^9 vp in 20 µL vehicle, intratumoral, day 1), or the combination. In two additional groups, an alternative topoisomerase 1 inhibitor, irinotecan (10 mg/kg, i.p., on days 1-5) we used in place of topotecan. Upon completion of treatments, tumor volumes were followed until endpoint (1500 mm^3), or until day 80.

[7] = tested on: E1A, E1B, E2F-1, p53 and cPARP; assay: Expression of viral genes and proteins by treatment sequence, Y79 cells; assay type: cell-based
Description: The expression of viral genes E1A and E1B was studied in 6-well culture plates containing 2×10^6 retinoblastoma cells. […] The experiments were controlled by adding culture medium instead of topotecan. […] Real time quantitative polymerase chain reactions (RT-qPCR) were carried out to analyze gene expression using SYBR technology (Thermo Fisher Scientific).
as §1, §2

E2F-1 = E2F-1 immunostaining in intraocular Y79 tumors; assay type: in vivo, mouse; conditions: mice with intraocular Y79 tumors, vs untreated (FIG. 17E)
E2F-1 and cyclin E1 = assay: Immunoblot of E2F-1 and cyclin E1 in neuroblastoma and Ewing sarcoma cells; assay type: cell-based; conditions: in vitro, up to 48 h with topotecan (FIG. 24C)
[8] = tested on: recombinant hyaluronidase PH20 (SPAM1 gene); assay: mRNA expression of recombinant hyaluronidase PH20 (SPAM1) in s.c. retinoblastomas; assay type: in vivo, mouse; conditions: 5 days, compared to […] (FIG. 18H)
Description: To quantify the recombinant PH20 hyaluronidase gene (SPAM1) in cultures and mouse tissues, the SYBR primer: Forward 5′-TACACACTCCTTGCTCCTGG-3′ (SEQ ID NO: 19), Reverse: 5′-CTTAGTCTCACAGAGGCCAC-3′ (SEQ ID NO: 20) (Bazan-Peregrino et al., “VCN-01 disrupts pancreatic cancer stroma and exerts antitumor effects,” Journal for ImmunoTherapy of Cancer 2021; 9(11):e003254) was used.
To establish s.c. tumors, 10^6 retinoblastoma cells suspended in 25 µL matrigel (Corning, Glendale, AZ, USA) were injected in athymic nude mice. Upon xenograft engraftment (tumor volumes ranging 100-200 mm^3), treatments were started. Mice received VCN-01 (3×10^9 vp in 20 µL vehicle, single intratumoral injection at day 1), alone or combined with one cycle of topotecan (0.6 mg/kg, intraperitoneal -i.p.-, daily at days 1-5), […] (40 mg/kg, i.p, one single dose at day 1), or hydroxyurea (200 mg/kg, i.p., daily at days 1-5). A group of mice received one intratumoral injection of the vehicle of VCN-01 (20 mM pH 8.0 tris buffer, 25 mM NaCl and 2.5% glycerol). Mice were sacrificed at 5 and 15 days after VCN-01 inoculation, the tumors were dissected and tumor homogenates were prepared by adding 10 μL of water per mg of tissue and homogenizing with a Bullet Blender turbine Storm 24 (Quasar instruments, Colorado Springs, CO, USA). In tumor homogenates, genome copies of VCN-01 were quantified. […]

[9] = non-tumor bearing pigs, cited from earlier work
[10] = read-out: IC50, Topotecan single agent
[11] = read-out: IC50, Topotecan with VCN-01 (10 MOI)
[12] = topotecan pretreatment before VCN-01 (FIG. 13E)

`CC[C@@]1(O)C(=O)OCc2c1cc1n(c2=O)Cc2cc3c(CN(C)C)c(O)ccc3nc2-1` [Topotecan, topotecan] gave an IC50 [1, 10] of 7.38 nM, an IC50 [1, 11] of 50.7 nM and an IC50 [2, 10] of 15.1 nM. For the same molecule, the IC50 [2, 11] was 118 nM, the IC50 [3, 10] was 29.6 nM and the IC50 [3, 11] was 126 nM. The “expression of VCN-01 proteins (E1a)” value (E1a [4]; VCN-01 50 MOI, drug added at 24 h, lysis at 48 h (FIG. 7)) was “similarly to topotecan”, the “expression of E2F-1 and E1A” value (E1a [4]; Y79 cells pre-exposed to VCN-01 (FIG. 13H)) was “increased the expression of E2F-1 and E1A similarly to topotecan” and the “VCN-01 genome content in tumors” value (HSJD-RBT-7 tumors) was “increases VCN-01 genome content”. The “number of E1A-positive cells” value (E1A [5]; 5-day topotecan treatment, VCN-01-pretreated tumors, vs saline, […] or hydroxyurea (FIG. 18I)) was “highest number of E1A-positive cells”, the “level of E1A protein expression” value (E1A [5]; 5-day topotecan treatment, VCN-01-pretreated tumors, vs saline, […] or hydroxyurea (FIG. 18J)) was “highest level of E1A protein expression” and the “VCN-01 activity (E1A) in tumors” value (E1A [5]; systemic drug after intratumoral VCN-01, 5 or 15 days (FIGS. 4A-C)) was “enhances VCN-01 activity”. The “response of xenograft to single treatment” value [6] was “highly resistant”, the “E1A expression, VCN-01 first” value ([7]; topotecan addition after the virus (FIG. 13E,F)) was “up to two orders of magnitude” and the “E1B expression, VCN-01 first” value ([7]; topotecan addition after the virus (FIG. 13G)) was “up to two orders of magnitude”. The “E2F-1 level, topotecan first” value [7, 12] was “accumulation of E2F-1”, the “p53 and cPARP expression, topotecan first” value [7, 12] was “increased expression of proapoptotic proteins p53 and cPARP” and the “E1A expression (protein and gene), topotecan first” value ([7]; topotecan pretreatment before VCN-01 (FIG. 13E,F)) was “low expression of E1A (protein and gene)”. The “E2F-1 expression in cancer cells” value (E2F-1) was “higher in the animals treated with topotecan”, the “expression of E2F-1 and cyclin E1” value (E2F-1 and cyclin E1) was “overexpression of E2F-1 and cyclin E1” and the “expression of recombinant hyaluronidase” value [8] was “higher expression of recombinant hyaluronidase”. For the same molecule, the “systemic exposure, OAC versus IV” value [9] was “systemic exposure was comparable between the two routes”, the “topotecan concentration in retina, OAC versus IV” value ([9]; retina, after OAC than after IV) was 146 times higher and the “topotecan concentration in vitreous, OAC versus IV” value ([9]; vitreous, after OAC than after IV) was 243 times higher.
